ChEMBL document CHEMBL3885881, “DrugMatrix”

Organism: Rattus norvegicus
Assay: DrugMatrix - Regimen: Daily Repeat
Assay type: toxicity, organism-based, Sprague-Dawley
Set-up: regimen Daily Repeat, gender Male, age 6-8 weeks
Settings: in vivo; for ABSOLUTE BASOPHIL / ABSOLUTE EOSINOPHIL / ABSOLUTE LYMPHOCYTE / ABSOLUTE MONOCYTE / ABSOLUTE SEGMENTED NEUTROPHIL / BASOPHIL / EOSINOPHIL / ERYTHROCYTE COUNT / HEMATOCRIT / HEMOGLOBIN / LEUKOCYTE COUNT / LYMPHOCYTE / MEAN CORPUSCULAR HEMOGLOBIN / MEAN CORPUSCULAR HEMOGLOBIN CONCENTRATION / MEAN CORPUSCULAR VOLUME / MONOCYTE / NEUTROPHIL / NUCLEATED RED BLOOD CELLS / PLATELET COUNT: tissue Blood; for ALANINE AMINOTRANSFERASE / ALKALINE PHOSPHATASE / ASPARTATE AMINOTRANSFERASE / BLOOD UREA NITROGEN / CARBON DIOXIDE / CHLORIDE / CHOLESTEROL / CREATINE PHOSPHOKINASE / CREATININE / GLUCOSE / LACTATE DEHYDROGENASE / LIPASE / PHOSPHORUS / POTASSIUM / SODIUM / TOTAL BILIRUBIN / TOTAL PROTEIN / URIC ACID / ALBUMIN: tissue Plasma
[1] = iv, 0.06 mg/kg, 72 h, dose level Low, time 3 day, vehicle 100 % SALINE
[2] = iv, 0.6 mg/kg, 72 h, dose level High, time 3 day, vehicle 100 % SALINE
[3] = po, 25 mg/kg, 72 h, route oral GAVAGE, dose level Low, time 3 day, […]
[4] = po, 25 mg/kg, 120 h, route oral GAVAGE, dose level Low, time 5 day, […]

**Q.** What does the source list for `COc1cc2c(c(OC)c1OC)-c1ccc(OC)c(=O)cc1[C@@H](NC(C)=O)CC2` [COLCHICINE]?
**A.** ABSOLUTE BASOPHIL [1]: 0 CELLS/uL; ABSOLUTE EOSINOPHIL [1]: 27.33 CELLS/uL; ABSOLUTE LYMPHOCYTE [1]: 6156.67 CELLS/uL; ABSOLUTE MONOCYTE [1]: 0 CELLS/uL; ABSOLUTE SEGMENTED NEUTROPHIL [1]: 749.33 CELLS/uL; BASOPHIL [1]: 0%; EOSINOPHIL [1]: 0.33%; ERYTHROCYTE COUNT [1]: 5.17 x10E6/uL; HEMATOCRIT [1]: 32.07%; HEMOGLOBIN [1]: 12.27 G/DL; LEUKOCYTE COUNT [1]: 6.93 x10E3/uL; LYMPHOCYTE [1]: 89%; MEAN CORPUSCULAR HEMOGLOBIN [1]: 23.77 pg; MEAN CORPUSCULAR HEMOGLOBIN CONCENTRATION [1]: 38.27 G/DL; MEAN CORPUSCULAR VOLUME [1]: 62.1 fL; MONOCYTE [1]: 0%; NEUTROPHIL [1]: 10.67%; NUCLEATED RED BLOOD CELLS [1]: 0 /100WBC; PLATELET COUNT [1]: 1043 x10E3/uL; ALANINE AMINOTRANSFERASE [1]: 47.67 u/L; ALKALINE PHOSPHATASE [1]: 415.67 u/L; ASPARTATE AMINOTRANSFERASE [1]: 76.33 u/L; BLOOD UREA NITROGEN [1]: 14 mg/dL; CARBON DIOXIDE [1]: 31.67 mmol/L; CHLORIDE [1]: 96.33 MEQ/L; CHOLESTEROL [1]: 74 mg/dL; CREATINE PHOSPHOKINASE [1]: 201 u/L; CREATININE [1]: 0.18 mg/dL; GLUCOSE [1]: 136.67 mg/dL; LACTATE DEHYDROGENASE [1]: 97 u/L; LIPASE [1]: 8 u/L; PHOSPHORUS [1]: 13.4 mg/dL; POTASSIUM [1]: 6.43 MEQ/L; SODIUM [1]: 144.43 MEQ/L; TOTAL BILIRUBIN [1]: 0.17 mg/dL; TOTAL PROTEIN [1]: 6.37 G/DL; URIC ACID [1]: 1.13 mg/dL; ABSOLUTE BASOPHIL [2]: 0 CELLS/uL; ABSOLUTE EOSINOPHIL [2]: 18.33 CELLS/uL; ABSOLUTE LYMPHOCYTE [2]: 4412.33 CELLS/uL; ABSOLUTE MONOCYTE [2]: 18.33 CELLS/uL; ABSOLUTE SEGMENTED NEUTROPHIL [2]: 317.67 CELLS/uL; BASOPHIL [2]: 0%; EOSINOPHIL [2]: 0.33%; ERYTHROCYTE COUNT [2]: 4.91 x10E6/uL; HEMATOCRIT [2]: 30.9%; HEMOGLOBIN [2]: 11.7 G/DL; LEUKOCYTE COUNT [2]: 4.77 x10E3/uL; LYMPHOCYTE [2]: 93%; MEAN CORPUSCULAR HEMOGLOBIN [2]: 23.87 pg; MEAN CORPUSCULAR HEMOGLOBIN CONCENTRATION [2]: 37.87 G/DL; MEAN CORPUSCULAR VOLUME [2]: 62.97 fL; MONOCYTE [2]: 0.33%; NEUTROPHIL [2]: 6.33%; NUCLEATED RED BLOOD CELLS [2]: 0.33 /100WBC; PLATELET COUNT [2]: 987.33 x10E3/uL; ALANINE AMINOTRANSFERASE [2]: 103.67 u/L; ALKALINE PHOSPHATASE [2]: 371.33 u/L; ASPARTATE AMINOTRANSFERASE [2]: 526.67 u/L; BLOOD UREA NITROGEN [2]: 14.33 mg/dL; CARBON DIOXIDE [2]: 28.67 mmol/L; CHLORIDE [2]: 97 MEQ/L; CHOLESTEROL [2]: 115.67 mg/dL; CREATINE PHOSPHOKINASE [2]: 183.67 u/L; CREATININE [2]: 0.17 mg/dL; GLUCOSE [2]: 165.67 mg/dL; LACTATE DEHYDROGENASE [2]: 137.33 u/L; LIPASE [2]: 9 u/L; PHOSPHORUS [2]: 11.9 mg/dL; POTASSIUM [2]: 6.74 MEQ/L; SODIUM [2]: 144.13 MEQ/L; TOTAL BILIRUBIN [2]: 0.13 mg/dL; TOTAL PROTEIN [2]: 6.3 G/DL; URIC ACID [2]: 1.67 mg/dL

**Q.** What does the source list for `O=c1ccc2ccccc2o1` [COUMARIN]?
**A.** ABSOLUTE BASOPHIL [3]: 0 CELLS/uL; ABSOLUTE EOSINOPHIL [3]: 0 CELLS/uL; ABSOLUTE LYMPHOCYTE [3]: 13415.67 CELLS/uL; ABSOLUTE MONOCYTE [3]: 244.67 CELLS/uL; ABSOLUTE SEGMENTED NEUTROPHIL [3]: 973 CELLS/uL; BASOPHIL [3]: 0%; EOSINOPHIL [3]: 0%; ERYTHROCYTE COUNT [3]: 5.76 x10E6/uL; HEMATOCRIT [3]: 36.97%; HEMOGLOBIN [3]: 14.6 G/DL; LEUKOCYTE COUNT [3]: 14.63 x10E3/uL; LYMPHOCYTE [3]: 92%; MEAN CORPUSCULAR HEMOGLOBIN [3]: 25.4 pg; MEAN CORPUSCULAR HEMOGLOBIN CONCENTRATION [3]: 39.5 G/DL; MEAN CORPUSCULAR VOLUME [3]: 64.27 fL; MONOCYTE [3]: 1.67%; NEUTROPHIL [3]: 6.33%; NUCLEATED RED BLOOD CELLS [3]: 0 /100WBC; PLATELET COUNT [3]: 1015 x10E3/uL; ALANINE AMINOTRANSFERASE [3]: 75 u/L; ALBUMIN [3]: 4.13 G/DL; ALKALINE PHOSPHATASE [3]: 469.67 u/L; ASPARTATE AMINOTRANSFERASE [3]: 106.33 u/L; BLOOD UREA NITROGEN [3]: 10.67 mg/dL; CARBON DIOXIDE [3]: 33.67 mmol/L; CHLORIDE [3]: 101.67 MEQ/L; CHOLESTEROL [3]: 71.67 mg/dL; CREATINE PHOSPHOKINASE [3]: 272.67 u/L; CREATININE [3]: 0.12 mg/dL; GLUCOSE [3]: 148 mg/dL; LACTATE DEHYDROGENASE [3]: 117 u/L; LIPASE [3]: 13.67 u/L; PHOSPHORUS [3]: 11.83 mg/dL; POTASSIUM [3]: 6.75 MEQ/L; SODIUM [3]: 146.1 MEQ/L; TOTAL BILIRUBIN [3]: 0.13 mg/dL; TOTAL PROTEIN [3]: 5.1 G/DL; URIC ACID [3]: 1.27 mg/dL; ABSOLUTE BASOPHIL [4]: 0 CELLS/uL; ABSOLUTE EOSINOPHIL [4]: 0 CELLS/uL; ABSOLUTE LYMPHOCYTE [4]: 11975.33 CELLS/uL; ABSOLUTE MONOCYTE [4]: 0 CELLS/uL; ABSOLUTE SEGMENTED NEUTROPHIL [4]: 1091.33 CELLS/uL; BASOPHIL [4]: 0%; EOSINOPHIL [4]: 0%; ERYTHROCYTE COUNT [4]: 5.78 x10E6/uL; HEMATOCRIT [4]: 36.27%; HEMOGLOBIN [4]: 14.1 G/DL; LEUKOCYTE COUNT [4]: 13.07 x10E3/uL; LYMPHOCYTE [4]: 91.33%; MEAN CORPUSCULAR HEMOGLOBIN [4]: 24.4 pg; MEAN CORPUSCULAR HEMOGLOBIN CONCENTRATION [4]: 38.9 G/DL; MEAN CORPUSCULAR VOLUME [4]: 62.7 fL; MONOCYTE [4]: 0%; NEUTROPHIL [4]: 8.67%; NUCLEATED RED BLOOD CELLS [4]: 0 /100WBC; PLATELET COUNT [4]: 1251 x10E3/uL; ALANINE AMINOTRANSFERASE [4]: 69 u/L; ALBUMIN [4]: 4.17 G/DL; ALKALINE PHOSPHATASE [4]: 466 u/L; ASPARTATE AMINOTRANSFERASE [4]: 95.67 u/L; BLOOD UREA NITROGEN [4]: 13.33 mg/dL; CARBON DIOXIDE [4]: 27 mmol/L; CHLORIDE [4]: 102.67 MEQ/L; CHOLESTEROL [4]: 64.33 mg/dL; CREATINE PHOSPHOKINASE [4]: 297 u/L; CREATININE [4]: 0.17 mg/dL; GLUCOSE [4]: 157.33 mg/dL; LACTATE DEHYDROGENASE [4]: 402.33 u/L; LIPASE [4]: 12.33 u/L; PHOSPHORUS [4]: 12 mg/dL; POTASSIUM [4]: 6.55 MEQ/L; SODIUM [4]: 143.47 MEQ/L; TOTAL BILIRUBIN [4]: 0.23 mg/dL; TOTAL PROTEIN [4]: 5.73 G/DL; URIC ACID [4]: 1.8 mg/dL
